Measurements reported in patent US11013696B2, “Lipids and lipid compositions for the delivery of active agents” (Novartis AG, priority 2013, dated 2021).

Assays:
[1] = Particle size and PDI of lipid nanoparticles by dynamic light scattering (Malvern Zetasizer); format: physicochemical
From the text: The lipid nanoparticles have a size of about 1 to about 2,500 nm, about 10 to about 1,500 nm, about 20 to about 1,000 nm, in a sub-embodiment about 50 to about 600 nm, in a sub-embodiment about 50 to about 400 nm, in a sub-embodiment about 50 to about 250 nm, and in a sub-embodiment about 50 to about 150 nm. Unless indicated otherwise, all sizes referred to herein are the average sizes (diameters) of the fully formed nanoparticle, as measured by dynamic light scattering on a Malvern Zetasizer. The nanoparticle sample is diluted in phosphate buffered saline (PBS) so that the count rate is approximately 200-400 kcts. The data is presented as a weighted average of the intensity measure.
Unless indicated otherwise, all PDIs referred to herein are the PDI of the fully formed nanoparticle, as measured by dynamic light scattering on a Malvern Zetasizer. The nanoparticle sample was diluted in phosphate buffered saline (PBS) so that the count rate was approximately 200-400 kcts. The data is presented in Table 3 as a weighted average of the intensity measure.
Unless indicated otherwise, all particle size measurements referred to in Table 3 are the Z-average particle size of the fully formed nanoparticle, as measured by dynamic light scattering on a Malvern Zetasizer. The nanoparticle sample was diluted in phosphate buffered saline (PBS) so that the count rate is approximately 200-400 kcts.

[2] = siRNA encapsulation in lipid nanoparticles (SYBR Gold); format: physicochemical; details: for % Encap.: FVII siRNA; for % encapsulation siRNA FVII: Table 2, FVII siRNA in LNP with the cationic lipid
Procedure, shortened: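 SYBR Gold fluorescence (ex 485/em 530 nm) of LNPs made by impinging-jet mixing of ethanolic lipids (cationic, cholesterol, optional DSPC, PEG/stealth lipid) with siRNA in citrate pH 4-6, siRNA:lipid ~0.05 wt/wt. Samples with and without Triton X-100 gave free and total siRNA for encapsulation efficiency.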

Row | SMILES | PDI ([1]; FLuc mRNA LNP) | Size ([1]; FLuc mRNA LNP) | PDI ([1]; Gluc mRNA LNP) | Size ([1]; Gluc mRNA LNP) | PDI ([1]; hFIX mRNA LNP) | Size ([1]; hFIX mRNA LNP) | PDI ([1]; hLep plasmid LNP) | Size ([1]; hLep plasmid LNP) | PDI ([1]; hLeptin mRNA LNP) | Size ([1]; hLeptin mRNA LNP) | PDI ([1]; mEPO mRNA LNP) | Size ([1]; mEPO mRNA LNP) | PDI ([1]; pDNA LNP) | Size ([1]; pDNA LNP) | PDI ([1]; FVII siRNA LNP) | Size ([1]; FVII siRNA LNP) | % Encap. [2] | % encapsulation siRNA FVII [2]
1 | CCCCCCCCCCCCC(CCOC(=O)CCCCC(COC(=O)CCCCCCC)COC(=O)CCCCCCC)OC(=O)OCCCN(CC)CC (stereo not drawn) [Example 1, 2-(10-dodecyl-3-ethyl-8,14-dioxo-7,9,13-trioxa-3-azaoctadecan-18-yl)propane-1,3-diyl dioctanoate] | 0.100 | 108.8 nm | 0.093 | 84.7 nm | 0.082 | 95.5 nm | 0.138 | 109.8 nm | 0.071 | 128.1 nm | 0.073 | 104.1 nm | 0.135 | 110 nm |  |  |  | 
2 | CCCCCCCCCCCCC(CCOC(=O)CCCCC(OCCCCCCCC)OCCCCCCCC)OC(=O)OCCCN(CC)CC (stereo not drawn) [Example 16, 3-(((3-(diethylamino)propoxy)carbonyl)oxy)pentadecyl 6,6-bis(octyloxy)hexanoate] | 0.145 | 106.7 nm | 0.145 | 106.7 nm | 0.141 | 102.6 nm | 0.155 | 102.6 nm | 0.103 | 122.6 nm | 0.112 | 83.2 nm | 0.128 | 101.6 nm | 0.075 | 95.7 nm | 88.9% | 88.9%
3 | CCCCCCCCCCCCC(CCOC(=O)CCCCC(OCC(CC)CCCC)OCC(CC)CCCC)OC(=O)OCCCN(CC)CC (stereo not drawn) [Example 18, 3-(((3-(diethylamino)propoxy)carbonyl)oxy)pentadecyl 6,6-bis((2-ethylhexyl)oxy)hexanoate] |  |  |  |  |  |  |  |  |  |  |  |  |  |  |  |  |  | 91.2%
4 | CCCCCCCCCC(=O)OCCC(CC(CCCCCCCC)CCCCCCCC)OC(=O)OCCCN(C)C (stereo not drawn) [Example 70, 3-(((3-(dimethylamino)propoxy)carbonyl)oxy)-5-octyltridecyl decanoate] |  |  |  |  |  |  |  |  |  |  |  |  |  |  |  |  |  | 80.0%
5 | CCCCC/C=C\C/C=C\CCCCCCCC(=O)OCC(COC(=O)CCCCCCC/C=C\C/C=C\CCCCC)OC(=O)CCC(CCCCCCCCCCCC)OC(=O)OCCCN(C)C (stereo not drawn) [Example 80, (9Z,9′Z,12Z,12′Z)-2-((4-(((3-(dimethylamino)propoxy)carbonyl)oxy)hexadecanoyl)oxy)propane-1,3-diyl bis(octadeca-9,12-dienoate)] | 0.085 | 193.5 nm |  |  |  |  |  |  |  |  | 0.083 | 166.0 nm |  |  | 0.051 | 97.3 nm | 85.2% | 85.2%
6 | CCCCC/C=C\C/C=C\CCCCCCCCC(CCC(=O)OC(COC(=O)CCCCCCC)COC(=O)CCCCCCC)OC(=O)OCCCN(C)C (stereo not drawn) [Example 94, 2-(((13Z,16Z)-4-(((3-(dimethylamino)propoxy)carbonyl)oxy)docosa-13,16-dienoyl)oxy)propane-1,3-diyl dioctanoate] | 0.093 | 129.2 nm | 0.113 | 76.9 nm | 0.079 | 148.3 nm | 0.153 | 109.8 nm | 0.101 | 119.1 nm | 0.099 | 108.5 nm | 0.152 | 123.5 nm | 0.073 | 122.6 nm | 74.8% | 74.8%
